Reference: patent US20250073249A1, “STEROID COMPOUND, AND PREPARATION METHOD THEREFOR AND USE THEREOF” (SHANGHAI INSTITUTE OF MATERIA MEDICA, CHINESE ACADEMY OF …, priority 2022, published 2025)

Test system: ACE2
Assay: ACE2 mRNA expression in A549 cells (qPCR)
Assay type: cell-based

Cc1cn(C2=CCC3C4CC=C5C[C@@H](NC(=O)c6ccc(S(C)(=O)=O)cc6)CC[C@]5(C)C4CC[C@]23C)cn1 (stereo partly drawn) [Compound 35, N-((3S,10R,13S)-17-(4-methyl-1H-imidazol-1-yl)-10,13-dimethyl-2,3,4,7,8,9,10,11,12,13,14,15-dodecahydro-1H-cyclopenta[a]phenanthren-3-yl)-4-(methylsulfonyl)benzamide]
Expression of ACE2 protein, in words: significantly downregulate
ACE2 mRNA level (10 μM, 1 nM DHT, 48 h, Blank = 1): 0.102
